Source: US20090143279A1 (priority 2007, published 2009)
Like-named read-outs stand apart in the source and are kept apart here.

What was measured:
reactive oxygen species = type: cell-based, mouse; conditions: for ROS (composite Z-score): normalized score vs mock-treated (DMSO) wells
[1] = system: mitochondrial membrane potential; type: cell-based, mouse; conditions: for ΔΨm (composite Z-score): normalized score vs mock-treated (DMSO) wells
cytochrome c = type: cell-based, mouse; conditions: for cyt c (composite Z-score): normalized score vs mock-treated (DMSO) wells
nuOXPHOS transcripts = type: cell-based, mouse; conditions: for nucOX (composite Z-score): normalized score vs mock-treated (DMSO) wells
mtOXPHOS transcripts = type: cell-based, mouse; conditions: for mitoOX (composite Z-score): normalized score vs mock-treated (DMSO) wells
OXPHOS gene expression = type: cell-based, mouse; conditions: for GE-HTS (composite Z-score): normalized score vs mock-treated (DMSO) wells
[2] = system: cellular dehydrogenase activity; conditions: for MTT (composite Z-score): normalized score vs mock-treated (DMSO) wells
C2C12 myotubes = conditions: for Viability (composite Z-score): normalized score vs mock-treated (DMSO) wells
[3] = composite Z-score vs DMSO, Conc 20 μM
[4] = composite Z-score vs mock-treated (DMSO) wells, Conc 20 μM

Row | SMILES | ROS (reactive oxygen species; [4]) | ΔΨm [1, 4] | cyt c (cytochrome c; [4]) | nucOX (nuOXPHOS transcripts; [4]) | mitoOX (mtOXPHOS transcripts; [4]) | GE-HTS (OXPHOS gene expression; [4]) | MTT [2, 4] | Viability (C2C12 myotubes; [4]) | also measured
1 | COc1cc2c(cc1-c1coc3c4c(c(OC)cc3c1=O)OC(C)(C)C=C4)OCO2 [ichthynone, reference compound] | – | – | – | – | – | – | – | – | ROS (composite Z-score) (reactive oxygen species; Conc 20 μM): 1.842; ΔΨm (composite Z-score) ([1]; Conc 20 μM): −0.325; cyt c (composite Z-score) (cytochrome c; Conc 20 μM): 0.001; nucOX (composite Z-score) (nuOXPHOS transcripts; Conc 20 μM): −0.088; mitoOX (composite Z-score) (mtOXPHOS transcripts; Conc 20 μM): −0.466; GE-HTS (composite Z-score) (OXPHOS gene expression; Conc 20 μM): −0.217; MTT (composite Z-score) ([2]; Conc 20 μM): −0.681; Viability (composite Z-score) (C2C12 myotubes; Conc 20 μM): 0.234
2 | O=[N+]([O-])NC1=NCCN1Cc1ccc(Cl)nc1 [imidacloprid] | – | – | – | – | – | – | – | – | ROS (reactive oxygen species; [3]): 0.075; ΔΨm [1, 3]: −0.019; cyt c (cytochrome c; [3]): 0.607; nucOX (nuOXPHOS transcripts; [3]): −0.214; mitoOX (mtOXPHOS transcripts; [3]): −0.368; GE-HTS (OXPHOS gene expression; [3]): −0.294; MTT [2, 3]: −0.893; Viability (C2C12 myotubes; [3]): −0.121
3 | COc1c(O)cc(O)cc1O [iretol] | −0.393 | −0.404 | 0.347 | −0.583 | −1.366 | −0.881 | −0.086 | −0.552 | –
4 | COc1cc(-c2coc3cc(O[C@@H]4O[C@H](CO)[C@@H](O)[C@H](O)[C@H]4O)c(OC)c(O)c3c2=O)cc(O)c1OC [iridin] | 0.927 | 0.076 | −0.474 | −0.602 | −0.990 | −0.755 | −1.958 | −0.441 | –
5 | COc1cc(-c2coc3cc(OC)c(OC)c(OC)c3c2=O)cc(OC)c1OC [irigenin trimethyl ether] | −0.074 | −0.174 | 0.129 | −0.790 | −0.699 | −0.792 | −0.808 | −0.060 | –
6 | COc1cc(-c2coc3cc(OCc4ccccc4)c(OC)c(O)c3c2=O)cc(O)c1OC [irigenin, 7-benzyl ether] | 1.548 | 0.948 | −0.617 | −1.386 | −1.100 | −1.362 | −1.179 | −0.334 | –
7 | COc1cc(-c2coc3cc(OCc4ccccc4)c(OC)c(O)c3c2=O)cc(OCc2ccccc2)c1OC [irigenin, dibenzyl ether] | – | – | – | – | – | – | – | – | ROS (reactive oxygen species; [3]): 0.088; ΔΨm [1, 3]: 0.178; cyt c (cytochrome c; [3]): 0.012; nucOX (nuOXPHOS transcripts; [3]): −0.163; mitoOX (mtOXPHOS transcripts; [3]): −0.602; GE-HTS (OXPHOS gene expression; [3]): −0.325; MTT [2, 3]: −0.793; Viability (C2C12 myotubes; [3]): −1.724
8 | O=c1c(-c2cc(O)c(O)c(O)c2)coc2cc(O)c(O)c(O)c12 [irigenol] | – | – | – | – | – | – | – | – | ROS (reactive oxygen species; [3]): −1.001; ΔΨm [1, 3]: −0.374; cyt c (cytochrome c; [3]): 0.410; nucOX (nuOXPHOS transcripts; [3]): −0.838; mitoOX (mtOXPHOS transcripts; [3]): −1.938; GE-HTS (OXPHOS gene expression; [3]): −1.274; MTT [2, 3]: −0.810; Viability (C2C12 myotubes; [3]): 0.249
9 | CC(=O)Oc1cc(-c2coc3cc(OC(C)=O)c(OC(C)=O)c(OC(C)=O)c3c2=O)cc(OC(C)=O)c1OC(C)=O [iriginol hexaaceatate] | 0.815 | −0.204 | −0.315 | 0.859 | 0.938 | 0.928 | −0.565 | −0.291 | –
10 | COc1cc2occc2c2oc(=O)ccc12 [isobergaptene] | 1.329 | −0.112 | 0.486 | 0.338 | 0.715 | 0.514 | −1.025 | 0.375 | –
11 | COc1ccc2c(c1O)-c1c(OC)c(OC)cc3c1[C@H](C2)N(C)CC3 [isocorydine] | – | – | – | – | – | – | – | – | ROS (composite Z-score) (reactive oxygen species; Conc 11.72 μM): 1.214; ROS (composite Z-score) (reactive oxygen species; Conc 20 μM): −0.096; ΔΨm (composite Z-score) ([1]; Conc 11.72 μM): −1.052; ΔΨm (composite Z-score) ([1]; Conc 20 μM): −0.017; cyt c (composite Z-score) (cytochrome c; Conc 11.72 μM): 0.632; cyt c (composite Z-score) (cytochrome c; Conc 20 μM): 0.355; nucOX (composite Z-score) (nuOXPHOS transcripts; Conc 11.72 μM): 0.451; nucOX (composite Z-score) (nuOXPHOS transcripts; Conc 20 μM): −0.463; mitoOX (composite Z-score) (mtOXPHOS transcripts; Conc 11.72 μM): −0.664; mitoOX (composite Z-score) (mtOXPHOS transcripts; Conc 20 μM): −0.322; GE-HTS (composite Z-score) (OXPHOS gene expression; Conc 11.72 μM): 0.084; GE-HTS (composite Z-score) (OXPHOS gene expression; Conc 20 μM): −0.462; MTT (composite Z-score) ([2]; Conc 11.72 μM): −1.041; MTT (composite Z-score) ([2]; Conc 20 μM): −1.215; Viability (composite Z-score) (C2C12 myotubes; Conc 11.72 μM): −1.678; Viability (composite Z-score) (C2C12 myotubes; Conc 20 μM): 1.230
12 | Cc1cc(=O)c2c(O)cc(O)c(C)c2o1 [isoeugenitol] | 1.129 | 0.369 | 0.662 | −0.647 | −0.680 | −0.717 | −0.500 | 0.377 | –
